Where a SMILES comes first, the peptide text is derived from it. [ ]: non-standard residue; d: D form.
What was measured:
[1] = target: T1, α-chymotrypsin (CHT) (Bos taurus, UniProt P00766); assay: Stability under enzymatic hydrolysis by α-chymotrypsin, residual DAL by HPLC; assay type: in vitro ADME; settings: 37 °C
T1 construct: purchased Sigma-Aldrich (St. Louis, MO, USA)
Method: GPC (Gel permeation chromatography) and HPLC analyses were carried out with a Perkin-Elmer instrument (Perkin-Elmer, Waltham, MA, USA), consisting of a Series 200 LC-290 AT pump, Rheodyne injector with a loop of 20 μL, UV-VIS SPD–6 AV detector, and Turbochrom Navigator software (Turbochrom 6.1, Perkin-Elmer, Waltham, MA, USA ). For GPC analyses, the standard pullulans were employed; the stationary phase was an X-stream H2O Mixed Bed 50 × 4.6 mm column, the mobile phase was acetate buffer 0.5 M (pH = 2.9), and the wavelength of the detector was set to 237 nm. For HPLC, the suitable mobile phase result was H2O:CH3CN = 70:30, the column was a C18 Aquapore OD-300 (Perkin-Elmer, Waltham, MA, USA) 7 µm 4.6 × 250 mm, and the wavelength of the detector was set to 227 nm.
Stock solutions of dalargin (1 mg/mL) either alone or as a 1:1 complex with MCD or polymers were mixed with α-chymotrypsin (0.36 mg/mL) solutions to obtain 0.50 mg/mL and 0.18 mg/mL (corresponding to 7.2 UI/mL) final concentrations, respectively. […] All samples were analyzed after 5 min by interrupting the digestion with temperature shock (4 °C) and extensive dilution (1:20 with cold HPLC mobile phase). Residual DAL was expressed as the percentage of initial DAL as detected by the HPLC method. […]

[2] = target: T1, α-chymotrypsin (CHT); assay: Enzymatic hydrolysis of DAL by α-chymotrypsin followed by 1H NMR; assay type: in vitro ADME
Method: The same DAL/enzyme ratio and concentrations of components selected for HPLC were used in NMR analysis at 37 °C through the entire digestion process. DAL and α-chymotrypsin stock solutions were prepared in phosphate buffer (pH = 6.8) and mixed directly into the NMR tube containing predissolved polymers at 40 °C for 2 h.
By using the same DAL/CHT molar ratio selected for HPLC analysis, low and high frequency NMR spectral regions of dalargin, pure (Figure 7a) and in presence of CHT (Figure 7b, c), were monitored over time at 37 °C. In the binary mixture DAL/CHT, a rapid decrease of the original dalargin signals was observed already after 5 min with the simultaneous formation of new peaks, which was attributable to the digestion products. […] In order to obtain a quantitative parameter, we refer to the lifetime of the drug (tf), the specific time in which non-degraded DAL reached 6% with respect to the hydrolyzed products. If the mixture is maintained at room temperature (25 °C), the tf of DAL is extended up to 45 min, owing to a reduced activity of the enzyme.

[3] = Stability of pure DAL in water by 1H NMR; assay type: physicochemical; settings: 37 °C, several days, 1H NMR chemical shifts and integrated areas
[4] = tested on: Caco-2 monolayers; assay: In vitro protection from enzymatic degradation on Caco-2 monolayers; assay type: in vitro ADME, human; settings: DAL 50 μg/mL applied apically in HBSS, 37 °C, HPLC, three experiments
Method: A Caco-2 monolayer was obtained by cell seeding (10^5 cells/well) on a polycarbonate membrane filter (pore size 0.4 μm, area 1.12 cm^2) in Corning Transwell, 12-well plates (Sigma-Aldrich, Saint Louis, MO, USA). Thereafter, 0.5 and 1.5 mL of culture medium was added to apical and basolateral compartments of the transwell inserts, respectively; the culture medium was replaced every two days for 24 days. As a rule, the experiments were performed with Caco-2 monolayers that have been grown on filter inserts for 21–29 days. By day 21, the monolayers have become differentiated with regard to the expression of many transport proteins, enzymes, and brush border hydrolases. The TransEpithelial Electrical Resistance (TEER, Ωcm^2) across the Caco-2 monolayer was determined by measuring the potential difference between the apical and basolateral sides of the transwell using the Millicell-ERS (Millipore, Milano, Italy). TEER was measured prior to each experiment to ensure the confluence of the monolayers, during transport studies (every 30 min), and at 24 h from the samples’ removal to assess monolayer stability recovery. Experiments were performed by using DAL-containing samples, which had either DAL alone or the presence of polymers and cyclodextrin. […] At the end of the experiment (3 h), the apical chambers media were collected and analyzed by HPLC for DAL content evaluation.

[5] = Complex association constant (Benesi–Hildebrand method), fluorescence spectrometry; assay type: binding; settings: rounded value quoted in text; technique not named at the place
Method: Complex association constant (Ka) was determined by spectrometric titration based on the Benesi–Hildebrand method and performed both by UV-VIS and fluorescence spectrometry. Two sets of dilutions were prepared (Tables S2–S5, Supplementary material). In the case of UV spectrometry, 275 μM DAL was kept, whereas MCD concentrations varied, either as MCD alone or as conjugated (N^+-rCh-MCD). The solutions were prepared and analyzed after being equilibrated for 1 h at room temperature. UV spectra in the range 220–325 nm were collected, and the intensity of absorbance at 282 nm was normalized on the correspondent value at 247 nm. Diversely, for fluorescence spectroscopy evaluations, DAL concentration was kept at 70 μM, and samples were analyzed by using a PerkinElmer LS 45 fluorimeter, with excitation λ set at 270 nm and the emission spectrum collected between 340 and 270 nm. The variation of fluorescence intensity was evaluated at 304 nm, and it was normalized on 285 nm. […]
The determination of the association constant (Ka) for complexes of DAL/MCD and of DAL/N^+-rCh-MCD was performed both by UV and fluorescence spectrometry. Both techniques exploited the gradual variation of DAL absorbance or fluorescence in the presence of increasing amounts of host agent. […]

Row | Molecule | reduction of the initial DAL content after 5 min of α-chymotrypsin ([1]; freshly prepared solutions, DAL 0.50 mg/mL alone or 1:1 with host, CHT 0.18 mg/mL (7.2 UI/mL), phosphate buffer pH 6.8, 0.4 M, HPLC-UV 227 nm, three independent experiments) [%] | stability of DAL to α-chymotrypsin, lyophilized samples redispersed in buffer ([1]; lyophilized DAL alone or 1:1 complex redispersed in PB, CHT 0.18 mg/mL, pH 6.8, 5 min, HPLC) | lifetime of the drug tf at room temperature ([2]; DAL/CHT mixture kept at 25 °C, tf = time at which non-degraded DAL reached 6%, 1H NMR) [min] | time after which digestion was almost complete ([2]; binary mixture DAL/CHT, no host, 1H NMR integrated areas, 37 °C, phosphate buffer pH 6.8, DAL 0.68 mM) [min] | stability of pure DAL in water [3] | DAL content in the apical chamber after 3 h of incubation ([4]; Caco-2 monolayers (Transwell, 21–29 days)) [µg/mL] | residual DAL in the apical chamber after 3 h of incubation ([4]; Caco-2 monolayers) | Association constant of DAL with host (Ka) [5] [M⁻¹]
1 | CC(C)C[C@H](NC(=O)[C@H](Cc1ccccc1)NC(=O)CNC(=O)[C@@H](C)NC(=O)[C@@H](N)Cc1ccc(O)cc1)C(=O)N[C@@H](CCCNC(=N)N)C(=O)O [DAL, (D-Ala2)-Leu-Enkephalin-Arg] (H-Y[dA]GFLR-OH) | 80 | rapidly degraded | 45 | 14 | stable | 4.1 to 7.3 | 8%–15% | –
2 | 2-methyl-β-cyclodextrin [MCD] | – | – | – | – | – | – | – | 120

Source: paper PMC7077720, “Improvement of Peptide Affinity and Stability by Complexing to Cyclodextrin-Grafted Ammonium Chitosan” (Polymers, 2020)
